For the test, the target named is recombinant human Myt1 (Homo sapiens (Human), UniProt Q99640). Kind of test: Myt1 enzymatic assay (ADP-Glo kinase assay). The settings on record: 18 nM enzyme, 10 uM ATP. Format: biochemical. As to the method: Detection of Myt1 kinase activity utilized a recombinant human Myt1 kinase assay measuring the hydrolysis of ATP using a commercially available ADP-Glo Assay (ADP-Glo™ Kinase Assay from Promega, 10 000 assays, #V9102). […] After this, 5 μL of compounds (diluted in reaction buffer to 0.5% DMSO) was added to the microplate and the plate was spun briefly and incubated at 22° C. for 15 minutes. Ultra-Pure Adenosine Triphosphate (ATP) solution (ADP-Glo kit from Promega) was diluted in reaction buffer and 5 μL was added to the microplate, spun down briefly and incubated for 60 minutes at 30° C. […] After the 60-minute incubation, 15 µL of ADP-Glo reagent was added and the plate was spun briefly and sealed and incubated in the dark for 40 minutes at 22° C. […] Luminescence was read using the Envision (250 ms integration). The IC50 and the % max inhibition were calculated for each inhibitor compound tested.
Sequence of recombinant human Myt1 (Q99640 whole entry): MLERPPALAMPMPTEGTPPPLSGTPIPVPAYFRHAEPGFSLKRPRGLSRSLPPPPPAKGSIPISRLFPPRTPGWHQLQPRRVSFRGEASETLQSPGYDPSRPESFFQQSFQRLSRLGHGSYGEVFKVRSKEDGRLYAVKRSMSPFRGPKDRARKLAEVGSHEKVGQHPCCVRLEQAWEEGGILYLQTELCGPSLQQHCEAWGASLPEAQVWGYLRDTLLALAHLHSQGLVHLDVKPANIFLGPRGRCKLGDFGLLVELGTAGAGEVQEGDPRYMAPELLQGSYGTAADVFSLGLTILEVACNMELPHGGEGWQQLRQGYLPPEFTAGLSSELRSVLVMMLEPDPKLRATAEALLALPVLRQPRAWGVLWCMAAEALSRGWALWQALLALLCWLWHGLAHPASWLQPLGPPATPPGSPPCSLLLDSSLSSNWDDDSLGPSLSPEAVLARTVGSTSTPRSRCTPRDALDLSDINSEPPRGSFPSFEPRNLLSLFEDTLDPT
For the compound `Cc1ccc(O)c(C)c1-n1c(N)c(S(C)(=O)=O)c2nc(-c3cnccn3)cnc21` [Compound 278], the half-maximal inhibitory concentration (IC50) was more than 5000 nM.
The value for `CC(=O)N1CCN(c2cnc3c(n2)c(C(N)=O)c(N)n3-c2c(C)ccc(O)c2C)CC1` [Compound 87] was less than 10 nM; that for `Cc1ccc(O)c(C)c1-n1c(N)c(C(N)=O)c2nc(-c3ccnc(C(F)(F)F)c3)cnc21` [Compound 35, 6-amino-5-(3-hydroxy-2,6-dimethyl-phenyl)-2-[2-(trifluoromethyl)-4-pyridyl]pyrrolo[2,3-b]pyrazine-7-carboxamide] was less than 10 nM; that for `Cc1ccc(O)c(C)c1-n1c(N)c(C(N)=O)c2nc(-c3cn(C)cn3)cnc21` [Compound 76] was less than 10 nM.
Take `Cc1ccc(O)c(C)c1-n1c(N)c(C(N)=O)c2nc(C3CCCCC3)cnc21` [Compound 83]: the 50% inhibitory concentration (IC50) was less than 10 nM.
The value for `NC(=O)c1c(N)n(-c2cccc3[nH]ncc23)c2ncc(-c3nccs3)nc12` [Compound 332] was 142 nM; that for `Cc1ccc(O)c(C)c1-n1c(N)c(C(N)=O)c2c(C)c(Cl)cnc21` [Compound 313] was less than 10 nM.
Turning to `Cc1cn2c(C(N)=O)c(N)c(-c3c(C)ccc(O)c3C)c2nc1C` [Compound 337, 7-amino-8-(3-hydroxy-2,6-dimethylphenyl)-2,3-dimethylpyrrolo[1,2-a]pyrimidine-6-carboxamide], the IC50 is less than 10 nM.
For `Cc1ccc(O)cc1-c1cn(C(N)=O)c2cc(Cl)cnc12` [Compound 345, 6-chloro-3-(5-hydroxy-2-methyl-phenyl) pyrrolo[3,2-b]pyridine-1-carboxamide], the half-inhibitory concentration (IC50) was 323 nM.
`Cc1ccc2[nH]ncc2c1-n1c(N)c(C(N)=O)c2cc(Cl)cnc21` [Compound 335]: the IC50 amounted to 40 nM.
Turning to `Cc1cnc(O)cc1-n1c(N)c(C(N)=O)c2nc(C)c(C)nc21` [Compound 169, 6-amino-5-(2-hydroxy-5-methyl-4-pyridyl)-2,3-dimethyl-pyrrolo[2,3-b]pyrazine-7-carboxamide], the IC50 worked out at 1730 nM.
The value for `Cc1ccc(O)c(C)c1-n1c(N)c(C(N)=O)c2c(Cl)c(Cl)cnc21` [Compound 316] was less than 10 nM; that for `Cc1ccc(O)c(C)c1-n1c(N)c(C(N)=O)c2cc(Br)cnc21` [Compound 141] was less than 10 nM.
For the compound `Cc1ccc(O)c(C)c1-n1c(N)c(C(N)=O)c2nc(N3CCC(C(=O)N(C)C)CC3)cnc21` [Compound 80], the 50% inhibitory concentration (IC50) is less than 10 nM.

The record behind these values is patent US12435090B2, “Compounds, pharmaceutical compositions, and methods of preparing compounds and of their use” (Repare Therapeutics Inc., priority 2021, dated 2025).
